The values below come from US9732103B2 (priority 2014, dated 2017).

Sequence of Human factor D (P00746 26-253 limits assumed): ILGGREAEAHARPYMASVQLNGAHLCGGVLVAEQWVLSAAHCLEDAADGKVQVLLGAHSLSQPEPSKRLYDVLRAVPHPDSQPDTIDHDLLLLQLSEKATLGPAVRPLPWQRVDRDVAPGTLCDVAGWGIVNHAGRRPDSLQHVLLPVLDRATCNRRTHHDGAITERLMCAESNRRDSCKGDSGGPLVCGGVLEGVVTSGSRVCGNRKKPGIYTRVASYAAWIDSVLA

One experiment has as its target Human factor D (Homo sapiens (Human), UniProt P00746). The class given is biochemical.
Settings: not given
Regarding `CC(=O)c1cn(CC(=O)Oc2ccc3c(c2)c(C(C)=O)cn3CC(=O)N2C[C@H](F)C[C@H]2C(=O)NCc2cccc(Cl)c2F)c2ccc(O)cc12` [Compound 1, 3-acetyl-1-(2-((2S,4R)-2-(3-chloro-2-fluorobcnzylcarbamoyl)-4-fluoropyrrolidin-1-yl)-2-oxoethyl)-1H-indol-5-yl 2-(3-acctyl-5-hydroxy-1H-indol-1-yl)acctate], the IC50 was less than 1 µM.

As to `CC(=O)c1cn(CC(=O)N2C[C@H](F)C[C@H]2C(=O)NCc2cccc(Cl)c2F)c2ccc(OC(=O)NCc3cscn3)cc12` [Compound 2, 3-acctyl-1-(2-((2S,4R)-2-(3-chloro-2-fluorobenzylcarbamoyl)-4-fluoropyrrolidin-1-yl)-2-oxoethyl)-1H-indol-5-yl thiazol-4-ylmethylcarbamate], the IC50 is less than 1 µM.

As to `CC(=O)c1cn(CC(=O)N2C[C@H](F)C[C@H]2C(=O)NCc2cccc(Cl)c2F)c2cc(OC(=O)NCc3cscn3)ccc12` [Compound 3, 3-acctyl-1-(2-((2S,4R)-2-(3-chloro-2-fluorobenzylcarbamoyl)-4-fluoropyrrolidin-1-yl)-2-oxoethyl)-1H-indol-6-yl thiazol-4-ylmethylcarbamate], the IC50 is less than 1 µM.

The molecule `CC(=O)c1cn(CC(=O)N2C[C@H](F)C[C@H]2C(=O)NCc2cccc(Cl)c2F)c2cc(OC(=O)NCc3nn[nH]n3)ccc12` [Compound 4, 3-acetyl-1-(2-((2S,4R)-2-(3-chloro-2-fluorobenzylcarbamoyl)-4-fluoropyrrolidin-1-yl)-2-oxoethyl)-1H-indol-6-yl (2H-tetrazol-5-yl)methylcarbamate] returned an IC50 of less than 1 µM.

`CC(=O)c1cn(CC(=O)N2C[C@H](F)C[C@H]2C(=O)NCc2cccc(Cl)c2F)c2cc(OC(=O)NCCc3nn[nH]n3)ccc12` [Compound 5, 3-acctyl-1-(2-((2S,4R)-2-(3-chloro-2-fluorobenzylcarbamoyl)-4-fluoropyrrolidin-1-yl)-2-oxoethyl)-1H-indol-6-yl 2-(2H-tetrazol-5-yl)ethylcarbamate] had an IC50 of less than 1 µM.

In the case of `CC(=O)c1cn(CC(=O)N2C[C@H](F)C[C@H]2C(=O)NCc2cccc(Cl)c2F)c2cc(OC(=O)NCCP(=O)(O)O)ccc12` [Compound 6, 2-((3-acctyl-1-(2-((2S,4R)-2-(3-chloro-2-fluorobenzylcarbamoyl)-4-fluoropyrrolidin-1-yl)-2-oxoethyl)-1H-indol-6-yloxy)carbonylamino) ethylphosphonic acid], the IC50 was less than 1 µM.

`CC(=O)c1cn(CC(=O)N2C[C@H](F)C[C@H]2C(=O)NCc2cccc(Cl)c2F)c2cc(OC(=O)NCc3ccc(B(O)O)cc3)ccc12` [Compound 7, 4-(((3-acetyl-1-(2-((2S,4R)-2-(3-chloro-2-fluorobenzylcarbamoyl)-4-fluoropyrrolidin-1-yl)-2-oxoethyl)-1H-indol-6-yloxy)carbonylamino)methyl)phenylboronic acid] gave an IC50 of less than 1 µM.

For `CC(=O)c1cn(CC(=O)N2C[C@H](F)C[C@H]2C(=O)NCc2cccc(Cl)c2F)c2ccc(OC(=O)NC3CC3)cc12` [Compound 8, 3-acetyl-1-(2-((2S,4R)-2-(3-chloro-2-fluorobenzylcarbamoyl)-4-fluoropyrrolidin-1-yl)-2-oxoethyl)-1H-indol-5-yl cyclopropylcarbamate], the IC50 is less than 1 µM.

On to `CC(=O)c1cn(CC(=O)N2C[C@H](F)C[C@H]2C(=O)NCc2cccc(Cl)c2F)c2ccc(OC(=O)NCc3cocn3)cc12` [Compound 9, 3-acctyl-1-(2-((2S,4R)-2-(3-chloro-2-fluorobenzylcarbamoyl)-4-fluoropyrrolidin-1-yl)-2-oxoethyl)-1H-indol-5-yl oxazol-4-ylmethylcarbamate], for which the IC50 is less than 1 µM.

Consider `CC(=O)c1cn(CC(=O)N2C[C@H](F)C[C@H]2C(=O)NCc2cccc(Cl)c2F)c2ccc(OC(=O)NCc3nnn[nH]3)cc12` [Compound 10, 3-acetyl-1-(2-((2S,4R)-2-(3-chloro-2-fluorobenzylcarbamoyl)-4-fluoropyrrolidin-1-yl)-2-oxoethyl)-1H-indol-5-yl (1H-tetrazol-5-yl)methylcarbamate], for which the IC50 was less than 1 µM.

The molecule `CC(=O)c1cn(CC(=O)N2C[C@H](F)C[C@H]2C(=O)NCc2cccc(Cl)c2F)c2cc(C(=O)C[S+](C)[O-])ccc12` (stereo partly drawn) [Compound 11, (2S,4R)-1-(2-(3-acetyl-6-(2-(methylsulfinyl)acetyl)-1H-indol-1-yl)acetyl)-N-(3-chloro-2-fluorobenzyl)-4-fluoropyrrolidine-2-carboxamide] had an IC50 of less than 1 µM.

Turning to `CC(=O)c1cn(CC(=O)N2C[C@H](F)C[C@H]2C(=O)NCc2cccc(Cl)c2F)c2ccc(OC(=O)N3CCOCC3)cc12` [Compound 12, 3-acetyl-1-(2-((2S,4R)-2-(3-chloro-2-fluorobenzylcarbamoyl)-4-fluoropyrrolidin-1-yl)-2-oxoethyl)-1H-indol-5-yl morpholine-4-carboxylate], the IC50 is less than 1 µM.

The molecule `CC(=O)c1cn(CC(=O)N2C[C@H](F)C[C@H]2C(=O)NCc2cccc(Cl)c2F)c2ccc(OC(=O)NCc3ncccn3)cc12` [Compound 13, 3-acctyl-1-(2-((2S,4R)-2-(3-chloro-2-fluorobenzylcarbamoyl)-4-fluoropyrrolidin-1-yl)-2-oxoethyl)-1H-indol-5-yl pyrimidin-2-ylmethylcarbamate] gave an IC50 of less than 1 µM.

`CC(=O)c1cn(CC(=O)N2C[C@H](F)C[C@H]2C(=O)NCc2cccc(Cl)c2F)c2ccc(OC(=O)NCCc3nn[nH]n3)cc12` [Compound 14, 3-acctyl-1-(2-((2S,4R)-2-(3-chloro-2-fluorobenzylcarbamoyl)-4-fluoropyrrolidin-1-yl)-2-oxoethyl)-1H-indol-5-yl 2-(2H-tetrazol-5-yl)ethylcarbamate]: the IC50 is less than 1 µM.

For `CC(=O)c1cn(CC(=O)N2C[C@H](F)C[C@H]2C(=O)NCc2cccc(Cl)c2F)c2ccc(OC(=O)NCCc3c[nH]cn3)cc12` [Compound 15, 3-acctyl-1-(2-((2S,4R)-2-(3-chloro-2-fluorobenzylcarbamoyl)-4-fluoropyrrolidin-1-yl)-2-oxoethyl)-1H-indol-5-yl 2-(1H-imidazol-4-yl)ethylcarbamate], the IC50 is less than 1 µM.

The same experiment, now with this note: factor D 80 nM, substrate Z-L-Lys-SBzl 100 μM, DTNB, pH 7.5.
With `CC(=O)c1cn(CC(=O)N2C[C@H](F)C[C@H]2C(=O)NCc2cccc(Cl)c2F)c2ccc(OC(=O)N3CCNCC3)cc12` [Compound 16, 3-acetyl-1-(2-((2S,4R)-2-(3-chloro-2-fluorobenzylcarbamoyl)-4-fluoropyrrolidin-1-yl)-2-oxoethyl)-1H-indol-5-yl piperazine-1-carboxylate], the 50% inhibitory concentration (IC50) was less than 1 µM.
